Experimental data published in US12616200B2, “Herbicidal combinations comprising diflufenican and mesotrione” (priority 2020, dated 2026).

Key:
Type in all cases: in vivo, Amaranthus palmeri
[1] = tested on: AMAPA WR-2015-008 (resistant against glyphosate and metribuzin (PSII-inhibitor), PPO-, HPPD- and ALS-inhibitor herbicides); assay: Greenhouse pre-emergence herbicidal activity, AMAPA WR-2015-008; conditions: mean of 6
Source text: (§1) Test conditions in the greenhouse trial, herbicidal activity against weed plants pre-emergence.
(§2) Seeds of weed plants and crop plants are sown in 3.5 inches (8.89 cm) pots containing a 50:50 mix of Redi-earth (Sun Gro, Bellevue, Washington) and soil at 0.5 to 0.75 inches (1.27 to 1.905 cm) deep. The compounds of the disclosure, formulated in the form of wettable powders (WP) or emulsifiable concentrates (EC), are then applied to the dry soil surface, in the form of an aqueous suspension or emulsion, using a laboratory track sprayer calibrated to deliver 15 gallons per acre (140.31 L/ha). Following the treatment, the pots are placed in a greenhouse and overhead irrigated with 0.25 inches (0.635 cm) for activation and maintained under good growth conditions for the test plants. Visual scoring of the damage to the trial plants takes place after a trial time of 3 weeks in comparison to untreated controls (herbicidal activity in percent (%): 100% activity=plants have died; 0% activity=as control plants). The results are set out in the tables which follow.
AMAPA (WR-2015-008) Amaranthus palmeri (resistant against glyphosate and metribuzin (PSII-inhibitor), PPO-, HPPD- and ALS-inhibitor herbicides).
(§3) Herbicidal activity against different weeds (undesired plants) was calculated as follows: E^C=A+B−A×B/100; E^C=(A+B+C)−(A×B+A×C+B×C)/100+(A×B×C)/10000; • wherein: • A, B, C=respective value in percent of active ingredient A at a dose rate of a g/ha, ingredient B at a dose rate of b g/ha and ingredient C at a dose rate of c g/ha; • E^C=Expected value according to Colby (S. R. Colby; Weeds 15 (1967), 20-22) in % at a dose rate of a+b (+c), each in g/ha; • Δ=Difference (%) between measured value E and expected value E^C (%) (measured value minus expected value). Evaluation: • measured value E is greater than E^C: →synergism (+Δ); • measured value E is equal to E^C: →additive effect; • measured value E is smaller than E^C: →antagonism (−Δ);
(§4) All values in Tables 1 to 15 are mean values of 6 repetitions.

[2] = tested on: AMAPA WR-2013-043 (resistant against HPPD-inhibitor herbicides); assay: Greenhouse pre-emergence herbicidal activity, AMAPA WR-2013-043; conditions: 3 weeks, mean of 6
Source text: as §1, §2
AMAPA (WR-2013-043) Amaranthus palmeri (resistant against HPPD-inhibitor herbicides) (Kansas).
as §3, §4

[3] = tested on: AMAPA WR-2015-002 (resistant against glyphosate, PPO-, HPPD- and ALS-inhibitor herbicides); assay: Greenhouse pre-emergence herbicidal activity, AMAPA WR-2015-002; conditions: 3 weeks, mean of 6
Source text: as §1, §2
AMAPA (WR-2015-002) Amaranthus palmeri (resistant against glyphosate, PPO-, HPPD- and ALS-inhibitor herbicides) (Tennessee).
as §3, §4

Compound: CS(=O)(=O)c1ccc(C(=O)C2C(=O)CCCC2=O)c([N+](=O)[O-])c1 [MST, 2-[4-(methylsulfonyl)-2-nitrobenzoyl]cyclohexane-1,3-dione]
- Activity [%] against AMAPA WR-2015-008 ([1]; rate 52 g/ha, 3 weeks): 57.7%
- Activity [%] against AMAPA WR-2015-008 ([1]; rate 105 g/ha, 3 weeks): 85%
- Activity [%] against AMAPA WR-2013-043 ([2]; rate 52 g/ha): 55.0%
- Activity [%] against AMAPA WR-2013-043 ([2]; rate 105 g/ha): 70.5%
- Activity [%] against AMAPA WR-2015-002 ([3]; rate 105 g/ha): 82.5%

Compound: CSc1nnc(C(C)(C)C)c(=O)n1N [MRB, 4-amino-6-(1,1-dimethylethyl)-3-(methylthio)-1,2,4-triazin-5(4H)-one]
- Activity [%] against AMAPA WR-2015-008 ([1]; rate 75 g/ha, 3 weeks): 39.2%
- Activity [%] against AMAPA WR-2015-008 ([1]; rate 150 g/ha, 3 weeks): 45%

Compound: O=C(Nc1ccc(F)cc1F)c1cccnc1Oc1cccc(C(F)(F)F)c1 [DFF, 2′,4′-difluoro-2-[3-(trifluoromethyl)phenoxy]pyridine-3-carboxanilide]
- Activity [%] against AMAPA WR-2015-008 ([1]; rate 37 g/ha, visual scoring after 3 weeks): 40.8%
- Activity [%] against AMAPA WR-2015-008 ([1]; rate 75 g/ha, 3 weeks): 51.7%
- Activity [%] against AMAPA WR-2013-043 ([2]; rate 75 g/ha): 47.5%
- Activity [%] against AMAPA WR-2013-043 ([2]; rate 150 g/ha): 63.3%
- Activity [%] against AMAPA WR-2015-002 ([3]; rate 75 g/ha): 45.8%
- Activity [%] against AMAPA WR-2015-002 ([3]; rate 150 g/ha): 71.7%
